Measurements taken from patent EP3818828A1 (priority 2019, dated 2021).
Converted amounts (≈) assume the structure as drawn. Read-outs that look alike come from different tables or passages of the source.

Tests used:
[1] = tested on: Magnaporthe grisea; test: microbe, parasite or virus in culture; format: cell-based; conditions: for EC50: median inhibition concentration
[2] = tested on: damping-off (P. aphanidermatum, P.capsici); test: In-vivo greenhouse control of damping-off of eggplants; conditions: Eggplant; sick soil; 0.80 mg/mL (active ingredients)
Procedure: 3.88 g of 3-(3',4'-methylenedioxy phenyl)-N-n-propyl acrylamide was weighed and dissolved in 25 g of absolute ethyl alcohol, then 6 g of emulsifier 0203B was added, and mixed uniformly with stirring to get 10% of 3-(3',4'-methylenedioxy phenyl)-N-n-propyl acrylamide EC.
(§1) 5.61 g of 3-(3',4'-methylenedioxy phenyl)-piperidine acrylate was weighed and dissolved in 25 g of absolute ethyl alcohol, then 6 g of emulsifier 0203B was added, and mixed uniformly with stirring to get 14% of 3-(3',4'-methylenedioxy phenyl)-piperidine acrylate EC.
Sick soil of damping-off (P. aphanidermatum, P.capsici) was collected from the fields of tomatoes, eggplants and peppers in a solar greenhouse, and mixed evenly in equal proportion. Tomatoes (Variety: Song Tian Fen Yang Yang, 100 grains), eggplants (Variety: Lanza No. 2 F1 long eggplant, 100 grains), pepper (Longjiao No. 2 F1, 100 grains) were seeded quantitatively with the sick soil in pots (diameter: 15 cm) in a greenhouse, additionally with sterile vermiculite as the control (each 100 grains for determining the germination rate). […] Mortality of seedlings was investigated after the seedlings had grown 2 true leaves, and the control effect of each treatment on damping-off was calculated. […]

[3] = tested on: Exserohilum turcicum; test: Toxicity determination (EC50) on mycelial growth, growth rate method; format: cell-based; conditions: for EC50: median inhibition concentration
Procedure: (§2) The inhibition of samples for testing on the mycelial growth of plant pathogenic fungi for testing is determined with a growth rate method. 3-(3',4'-methylenedioxy phenyl)-N-n-propyl acrylamide, 3-(3',4'-methylenedioxy phenyl)-piperidine acrylate and five control agents are dissolved with dimethyl sulfoxide (DMSO), then formulated at 5-7 concentrations of different gradients for test following the trial test results, with the same concentration of DMSO as the control solvent, each treatment in triplicate. Fungal cakes with a diameter of 4 mm are taken from the edge of the colony, inoculated into the center of a PDA plate containing different agents of different concentrations and the DMSO control, with one piece of fungal cake inoculated in each plate (with a diameter of […]), and incubated in a constant temperature incubator at a temperature of 22±1.5°C. 7 days later (10-20 days may be needed for some pathogenic fungi), the diameter of the colony is measured with a cross over method according to the mycelial growth profile of the control pathogenic fungi, then the inhibition rate of mycelial growth is calculated.
(§3) 3-(3',4'-methylenedioxy phenyl)-piperidine acrylate, the control agents 96.5% of chlorothalonil technical and 97.0% of procymidone technical. Agents for testing and the control agents chlorothalonil and procymidone are treated at 5-8 concentrations of different gradients on the basis of preliminary tests to ensure that the inhibition rates for treatments at all the concentrations are between 10% and 90%.
(§4) For specific determination methods, with reference to Embodiment 1. The concentration of active ingredients in the culture medium is used as the testing concentration to calculate the toxic regression equation (Y=bx+a) and the median inhibition concentration EC50, 95% confidence limit, and relative toxicity. Relative toxicity (compared to chlorothalonil) = EC50 of chlorothalonil / EC50 of 3-(3',4'-methylenedioxy phenyl)-piperidine acrylate, and relative toxicity (compared to procymidone) = EC50 of procymidone / EC50 of 3-(3',4'-methylenedioxy phenyl)-piperidine acrylate.

[4] = tested on: Colletotrichum capsici; test: as above; format: cell-based; conditions: for EC50: median inhibition concentration
Procedure: as §2, §3, §4

[5] = tested on: Valsa mali; test: as above; format: cell-based; conditions: for EC50: median inhibition concentration
Procedure: as §2, §3, §4

[6] = tested on: Botrytis cinerea; test: as above; format: cell-based
Procedure: as §2, §3, §4

[7] = tested on: Sclerotinia sclerotiorum; test: as above; format: cell-based
Procedure: as §2, §3, §4

[8] = tested on: F. graminearum; test: microbe, parasite or virus in culture; format: cell-based; conditions: for EC50: median inhibition concentration
[9] = tested on: Leveillula taurica; test: In-vivo greenhouse control of pepper powdery mildew
Procedure: as §1
Pepper seedling (Variety: Bell pepper) was carried out in a greenhouse, and the seedlings were transplanted into pots, 3 for each pot. Sick leaves of powdery mildew (Leveillula taurica) were harvested form peppers (Longjiao No. 2) in a solar greenhouse in Jingyuan County, Baiyin City, and formulated into a spore suspension of powdery mildew. Both sides of the pepper leaves were sprayed evenly with a small hand-held sprayer and inoculated. The first application was started at the early onset of powdery mildew. 14% of 3-(3',4'-methylenedioxy phenyl)-piperidine acrylate EC was diluted at four concentrations of 1.00, 0.667, 0.50 and 0.40 mg/mL (active ingredients); the control agent, 12.5% of myclobutanil EC, was diluted at a concentration of 0.063 mg/mL (active ingredients); additionally clear water was used as the control. The instrument for application is a small hand-held sprayer. Both sides of the leaves were sprayed evenly so that the leaves were wetted by the liquor without loss. Applications were conducted every 7 days consecutively for 3 times. 10 days after the third application, the disease extent of powdery mildew in the upper, middle and lower 3 leaves of each plant was investigated, to calculate the disease index and the control effect.

[10] = tested on: Phytophthora infestans; test: microbe, parasite or virus in culture; format: cell-based; conditions: for EC50: median inhibition concentration
[11] = EC50 of chlorothalonil / EC50 of agent
[12] = EC50 of procymidone / EC50 of agent
[13] = median inhibition concentration

## O=C(/C=C/c1ccc2c(c1)OCO2)N1CCCCC1 [3-(3',4'-methylenedioxyphenyl)-piperidine acrylate]
[1]; [11]
  Relative Toxicity (Compared to Chlorothalonil): 2.45
[1]; [12]
  Relative Toxicity (Compared to Procymidone): 1.73
[1]; Pyricularia oryzae
  EC50: 180 µg/mL (≈ 694 µM)
[1]; listed as 66#
  EC50: 177.6 µg/mL (≈ 685 µM)
[2]
  Control Effect: 63.47%
[3]; [11]
  Relative Toxicity (Compared to Chlorothalonil): 3.21
[3]; [12]
  Relative Toxicity (Compared to Procymidone): 0.82
[3]; listed as 66#
  EC50: 128.1 µg/mL (≈ 494 µM)
[3]; read-out: EC50
  EC50: 130 µg/mL (≈ 501 µM)
[4]; Colletotrichum truncatum, read-out: EC50
  EC50: 130 µg/mL (≈ 501 µM)
[4]; [11]
  Relative Toxicity (Compared to Chlorothalonil): 3.23
[4]; [12]
  Relative Toxicity (Compared to Procymidone): 4.13
[4]; listed as 66#
  EC50: 125.3 µg/mL (≈ 483 µM)
[5]; Cytospora mali, read-out: EC50
  EC50: 90 µg/mL (≈ 347 µM)
[5]; [11]
  Relative Toxicity (Compared to Chlorothalonil): 4.68
[5]; [12]
  Relative Toxicity (Compared to Procymidone): 4.78
[5]; listed as 66#
  EC50: 89.4 µg/mL (≈ 345 µM)
[6]; [11]
  Relative Toxicity (Compared to Chlorothalonil): 0.84
[6]; [12]
  Relative Toxicity (Compared to Procymidone): 0.37
[6]; [13]
  EC50: 212 µg/mL (≈ 816 µM)
[7]; [11]
  Relative Toxicity (Compared to Chlorothalonil): 0.28
[7]; [12]
  Relative Toxicity (Compared to Procymidone): 0.31
[7]; [13]
  EC50: 227 µg/mL (≈ 875 µM)
[8]; [11]
  Relative Toxicity (Compared to Chlorothalonil): 1.82
[8]; [12]
  Relative Toxicity (Compared to Procymidone): 6.83
[8]; Fusarium graminearum
  EC50: 120 µg/mL (≈ 463 µM)
[8]; listed as 66#
  EC50: 124.5 µg/mL (≈ 480 µM)
[9]; 0.50 mg/mL
  Control Effect: 75.56%
[9]; 0.667 mg/mL
  Control Effect: 84.56%
[9]; 1.00 mg/mL
  Control Effect: 100%
[10]; [11]
  Relative Toxicity (Compared to Chlorothalonil): 1.23
[10]; [12]
  Relative Toxicity (Compared to Procymidone): 8.36
[10]
  EC50: 90 µg/mL (≈ 347 µM)
[10]; listed as 66#
  EC50: 93 µg/mL (≈ 359 µM)
